Where “and” joins values, the source holds several entries; their conditions need not be identical. Equal entries are not always repeated.
Legend:
telomerase [1] = target: T1, telomerase (Homo sapiens, UniProt O14746); experiment: Direct telomerase repeat addition assay with radiolabeled dNTPs: dNTP titration, repeat processivity R1/2; format: biochemical; design: made in house; anti-FLAG immunopurification, eluted with 3xFLAG peptide; details: for Processivity R 1/2: (TTAGGG)3 primer, remaining three natural dNTPs at cellular concentration
T1 sequence (O14746 whole entry): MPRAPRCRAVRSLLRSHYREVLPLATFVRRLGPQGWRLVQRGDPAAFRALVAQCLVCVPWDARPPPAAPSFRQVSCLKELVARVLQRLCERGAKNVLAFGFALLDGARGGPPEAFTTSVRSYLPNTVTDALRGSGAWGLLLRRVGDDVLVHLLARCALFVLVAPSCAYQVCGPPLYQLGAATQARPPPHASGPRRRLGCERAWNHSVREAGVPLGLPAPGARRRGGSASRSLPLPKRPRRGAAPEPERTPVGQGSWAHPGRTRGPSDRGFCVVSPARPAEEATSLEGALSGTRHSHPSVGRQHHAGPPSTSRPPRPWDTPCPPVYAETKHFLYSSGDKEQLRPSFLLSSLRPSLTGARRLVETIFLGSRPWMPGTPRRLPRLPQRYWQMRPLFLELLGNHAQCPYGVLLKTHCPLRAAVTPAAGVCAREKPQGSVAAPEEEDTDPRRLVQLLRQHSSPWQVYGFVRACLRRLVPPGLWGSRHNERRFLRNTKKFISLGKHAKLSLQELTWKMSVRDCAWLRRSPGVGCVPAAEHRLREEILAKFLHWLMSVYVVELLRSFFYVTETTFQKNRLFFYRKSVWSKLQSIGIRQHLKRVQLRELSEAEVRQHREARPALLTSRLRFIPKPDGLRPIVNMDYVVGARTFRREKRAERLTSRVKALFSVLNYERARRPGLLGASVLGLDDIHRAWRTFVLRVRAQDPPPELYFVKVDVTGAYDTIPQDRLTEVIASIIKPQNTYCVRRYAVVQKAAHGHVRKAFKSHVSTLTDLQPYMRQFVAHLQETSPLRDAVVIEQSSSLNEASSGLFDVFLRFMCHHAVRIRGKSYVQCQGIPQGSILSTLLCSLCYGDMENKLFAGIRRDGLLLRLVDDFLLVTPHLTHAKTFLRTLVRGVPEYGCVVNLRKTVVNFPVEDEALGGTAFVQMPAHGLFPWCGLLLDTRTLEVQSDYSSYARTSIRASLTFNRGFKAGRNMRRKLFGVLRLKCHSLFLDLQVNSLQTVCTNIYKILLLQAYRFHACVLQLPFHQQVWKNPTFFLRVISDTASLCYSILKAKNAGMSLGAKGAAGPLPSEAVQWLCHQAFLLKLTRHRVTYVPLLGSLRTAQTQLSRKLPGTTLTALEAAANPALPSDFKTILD
Protocol: This preparation, termed super telomerase, has kinetic properties similar to endogenous telomerase (Supplementary Fig. 1)[29]–[31]. […] Repeat processivity was measured using the convention of calculating the number of repeats synthesized before half of the DNA substrates dissociate from telomerase[33] (Supplementary Fig. 2). 8-oxo-dGTP served as a control since it is an established telomerase chain terminator[12].
Fig. 2 Oxidized and therapeutic dNTPs inhibit telomerase processivity. […] The loading control (*) was a ^32P-end labeled 18-mer oligonucleotide. Numbers on the left indicate the number of added repeats; letters on the right indicate template residue. Images are representative of three independent experiments.
The telomerase assay was as described. […] Reactions containing the modified dNTPs (Trilink Biotechnologies) substituted for their natural dNTP analog are indicated in the figure legends. The reactions were started by the addition of 3 μl (~35 fmol) of immunopurified telomerase eluent, incubated at 37 °C for 1 h, then terminated with 2 μl of […] EDTA and heat inactivated at 65 °C for 20 min. ^32P-end labeled 18-mer loading control (8 fmol) was added to the terminated reactions before purification with an Illustra Microspin G-25 column (GE Healthcare). An equal volume of loading buffer (94% formamide, 0.1× TBE, 0.1% bromophenol blue, 0.1% xylene cyanol) was added to the reaction eluent from the G-25 spin column. The samples were heat denatured for 10 min at 100 °C and loaded onto a 14% denaturing polyacrylamide gel (7 M urea, 1× TBE) and electrophoresed for 90 min at constant 38 W. Samples were imaged using a Typhoon phosphorimager (GE Healthcare).
The processivity was calculated as described[40],[67]. Repeat processivity from the direct telomerase extension assays was calculated as R1/2 (equivalent to the half-time for decay in an exponential time course), which represents the median length of DNA product formed, expressed in terms of number of telomere repeats. First, the total volume counts for each product band extend by one or more telomere repeats were obtained using Image Quant TL. The volume counts were then normalized by dividing by the number of radiolabeled guanosines incorporated into the extended products based on the number of repeats added, termed corrected volume (corr vol). The “percent left behind” (%LB) was calculated for each product band by summing the counts for that product band and for every product band below (shorter products), divided by the total counts for the lane, and then multiplied by 100. The natural log of (100−%LB) was calculated and then plotted vs. repeat number for each product length. A linear regression line was fit to the data to determine the slope of the line. The R1/2 value was calculated by dividing −ln(2) by the slope of each fitted line (R1/2 = −ln(2)/slope).
Number of Repeats Number of Repeats Number of Repeats Number of Repeats
Supplementary Fig 2.Telomerase dNTP titrations and processivity calculations. Telomerase reactions were conducted with (TTAGGG) 3 primer 1 and cellular-concentration dNTPs except that the […]
The loading control (LC) was a 32P-end labeled 18-mer. Numbers on the left indicate the number of added repeats. (d) Processivity was calculated as R1/2 (see Methods). (e) The natural log of (100-%LB) was plotted vs repeat number. A straight line was fit to the data and the R1/2 was calculated by dividing –ln(2) by the slope of each line. Plots shown from one experiment. Images ( a-c) and plots ( e) are representative of, and data are mean + s. d. (d) from, three independent experiments. Source data are provided as a Source Data file.
(1 picture or pasted object on this page, not shown here)

telomerase [2] = target: T1, telomerase; experiment: Telomerase extension after insertion of modified dNTP (percent of product terminated at each template position); format: biochemical; design: made in house; anti-FLAG immunopurification, eluted with 3xFLAG peptide; details: for Percent of Total Product: Mean
Protocol: Direct telomerase assays were conducted with 5 nM ^32P-end labeled primer a and d Primer 3 (AGGGTT)3, b Primer 1 (TTAGGG)3, or c Primer 2 […]. […] Products were separated on denaturing gels. Letters on the y-axis of the graph indicate the template base; P indicates unextended 18-mer primer. Graphs represent percent of product terminated at each template position as a function of total products. Images are representative of, and data are the mean ± s.d. from, three independent experiments. Source data are provided as a Source Date file.
The reactions were started by the addition of 3 μl of immunopurified telomerase eluent, incubated at 37 °C for 1 h, then terminated with 2 μl of […] and heat inactivated at 65 °C for 20 min. An equal volume of loading buffer (94% formamide, 0.1× TBE, 0.1% bromophenol blue, 0.1% xylene cyanol) was added to the reaction eluent. The samples were heat denatured for 10 min at 100 °C and loaded onto a 14% denaturing acrylamide gel (7 M urea, 1× TBE) and electrophoresed for 90 min at constant 38 W. Samples were imaged using a Typhoon phosphorimager (GE Healthcare). Percent primer extension was calculated with ImageQuant TL 8.2 by measuring the intensity of each product band and dividing by the total radioactivity in the lane or total products, as indicated in the figure legends.

[3] = indicated dNTP at 0.5 μM, n1-n3

Nc1nc(O)nc2c1ncn2C1CC(O)C(COP(=O)(O)OP(=O)(O)OP(=O)(O)O)O1 (centres unmarked) [2-OH-dATP]
YIntercept (best-fit line of ln(100-%LB) vs repeat number) (telomerase [1]; 2-OH-dATP 0.5μM, single experiments): 2.12 and 4.01 and 2.03 | YIntercept (best-fit line of ln(100-%LB) vs repeat number) (telomerase [1]; 2-OH-dATP 1μM, single experiments): 2.17 and 3.36 and 2.82 | ln(100-%LB) (telomerase [1]; 2-OH-dATP 5μM, 1 telomere repeat, single experiments): 1.89 and 1.96 and 2.94 | YIntercept (best-fit line of ln(100-%LB) vs repeat number) (telomerase [1]; 2-OH-dATP 5μM, single experiments): 3.87 and 3.78 and 4.14 | ln(100-%LB) (telomerase [1]; 2-OH-dATP 25μM, 1 telomere repeat, single experiments): 2.24 and 2.45 | ln(100-%LB) (telomerase [1]; 2-OH-dATP 25μM, 2 telomere repeats, single experiments): 0.15 and 0.23 | YIntercept (best-fit line of ln(100-%LB) vs repeat number) (telomerase [1]; 2-OH-dATP 25μM, single experiments): 3.63 and 4.14 | Processivity R 1/2 (telomerase [1]; indicated dNTP at 0.5 μM, Mean): 0.46 | Processivity R 1/2 (telomerase [1]; [3]): 0.46 and 0.39 and 0.53 | Processivity R 1/2 (telomerase [1]; indicated dNTP at 1 μM, Mean): 0.43 | Processivity R 1/2 (telomerase [1]; indicated dNTP at 1 μM, n1-n3): 0.30 and 0.39 and 0.59 | Processivity R 1/2 (telomerase [1]; indicated dNTP at 5 μM, Mean): 0.57 | Processivity R 1/2 (telomerase [1]; indicated dNTP at 5 μM, n1-n3): 0.42 and 0.69 and 0.61 | Processivity R 1/2 (telomerase [1]; indicated dNTP at 24 μM, Mean): 0.66 | Processivity R 1/2 (telomerase [1]; indicated dNTP at 24 μM, n1-n3): 0.46 and 0.70 and 0.83 | Extension after insertion of the modified dNTP (in words) (telomerase [2]; 50 μM each dNTP, analog substituted for natural dNTP): translocation to add the next repeat is greatly compromised | Percent of Total Product (telomerase [2]; Fig 4a, Primer 3, 50 μM each dTTP, dGTP and dATP or 2-OH-dATP, terminated at rA3): 5.06% | Percent of Total Product (telomerase [2]; Fig 4a, Primer 3, 50 μM each dTTP, dGTP and dATP or 2-OH-dATP, terminated at rA4): 1.19% | Percent of Total Product (telomerase [2]; Fig 4a, Primer 3, 50 μM each dTTP, dGTP and dATP or 2-OH-dATP, terminated at rC1): 1.62% | Percent of Total Product (telomerase [2]; Fig 4a, Primer 3, 50 μM each dTTP, dGTP and dATP or 2-OH-dATP, terminated at rC2): 10.51% | Percent of Total Product (telomerase [2]; Fig 4a, Primer 3, 50 μM each dTTP, dGTP and dATP or 2-OH-dATP, terminated at rC6): 68.71% | Percent of Total Product (telomerase [2]; Fig 4a, Primer 3, 50 μM each dTTP, dGTP and dATP or 2-OH-dATP, terminated at rU5 (first)): 12.42% | Percent of Total Product (telomerase [2]; Fig 4a, Primer 3, 50 μM each dTTP, dGTP and dATP or 2-OH-dATP, terminated at rU5 (second, after translocation)): 0.49%

Nc1nc2c(ncn2C2CC(O)C(COP(=O)(O)OP(=O)(O)OP(=O)(O)O)O2)c(=O)[nH]1 (centres unmarked) [dGTP]
ln(100-%LB) (telomerase [1]; 0.5μM titrated dNTP, telomere repeat 8): -4.24 | ln(100-%LB) (telomerase [1]; 0.5μM titrated dNTP, telomere repeat 9): -4.48 | ln(100-%LB) (telomerase [1]; 0.5μM titrated dNTP, telomere repeat 10): -4.75 | ln(100-%LB) (telomerase [1]; 0.5μM titrated dNTP, telomere repeat 11): -4.99 | Processivity R 1/2 (telomerase [1]; indicated dNTP at 0.5 μM, Mean): 1.69 | Processivity R 1/2 (telomerase [1]; [3]): 1.96 and 1.27 and 1.84 | Processivity R 1/2 (telomerase [1]; indicated dNTP at 1 μM, Mean): 1.78 | Processivity R 1/2 (telomerase [1]; indicated dNTP at 1 μM, n1-n3): 1.97 and 1.53 and 1.85 | Processivity R 1/2 (telomerase [1]; indicated dNTP at 5 μM, Mean): 2.39 | Processivity R 1/2 (telomerase [1]; indicated dNTP at 24 μM, Mean): 5.11 | Percent of Total Product (telomerase [2]; Fig 4b, Primer 1 (TTAGGG)3, 50 μM each dATP, dTTP and dGTP or 6-thio-dGTP, terminated at rA3): 7.65% | Percent of Total Product (telomerase [2]; Fig 4b, Primer 1, 50 μM each dATP, dTTP and dGTP or 6-thio-dGTP, terminated at rA4): 5.26% | Percent of Total Product (telomerase [2]; Fig 4b, Primer 1, 50 μM each dATP, dTTP and dGTP or 6-thio-dGTP, terminated at rC1): 0.66% | Percent of Total Product (telomerase [2]; Fig 4b, Primer 1, 50 μM each dATP, dTTP and dGTP or 6-thio-dGTP, terminated at rC2): 0.40% | Percent of Total Product (telomerase [2]; Fig 4b, Primer 1, 50 μM each dATP, dTTP and dGTP or 6-thio-dGTP, terminated at rC6): 4.56% | Percent of Total Product (telomerase [2]; Fig 4b, Primer 1, 50 μM each dATP, dTTP and dGTP or 6-thio-dGTP, terminated at rU5): 0.95% | Percent of Total Product (telomerase [2]; Fig 4c, Primer 2, 50 μM each dATP, dTTP and dGTP or 6-thio-dGTP, terminated at rA3): 5.15% | Percent of Total Product (telomerase [2]; Fig 4c, Primer 2, 50 μM each dATP, dTTP and dGTP or 6-thio-dGTP, terminated at rA4): 4.76% | Percent of Total Product (telomerase [2]; Fig 4c, Primer 2, 50 μM each dATP, dTTP and dGTP or 6-thio-dGTP, terminated at rC1): 7.39% | Percent of Total Product (telomerase [2]; Fig 4c, Primer 2, 50 μM each dATP, dTTP and dGTP or 6-thio-dGTP, terminated at rC2): 1.97% | Percent of Total Product (telomerase [2]; Fig 4c, Primer 2, 50 μM each dATP, dTTP and dGTP or 6-thio-dGTP, terminated at rC6): 6.22% | Percent of Total Product (telomerase [2]; Fig 4c, Primer 2, 50 μM each dATP, dTTP and dGTP or 6-thio-dGTP, terminated at rU5): 1.19% | Percent of Total Product (telomerase [2]; Fig 4d, Primer 3 (AGGGTT)3, 50 μM each dATP, dTTP and dGTP or 6-thio-dGTP, terminated at rU5): 4.50% | Percent of Total Product (telomerase [2]; Fig 4d, Primer 3, 50 μM each dATP, dTTP and dGTP or 6-thio-dGTP, terminated at rA3): 2.21% | Percent of Total Product (telomerase [2]; Fig 4d, Primer 3, 50 μM each dATP, dTTP and dGTP or 6-thio-dGTP, terminated at rC1): 1.49% | Percent of Total Product (telomerase [2]; Fig 4d, Primer 3, 50 μM each dATP, dTTP and dGTP or 6-thio-dGTP, terminated at rC2): 0.72% | Percent of Total Product (telomerase [2]; Fig 4d, Primer 3, 50 μM each dATP, dTTP and dGTP or 6-thio-dGTP, terminated at rC6): 8.67%

Source: article PMC7576608, “Mechanisms of telomerase inhibition by oxidized and therapeutic dNTPs” (Nature Communications, 2020)
